The values below come from patent publication US20230088286A1, “USP7 INHIBITOR FOR USE IN THE TREATMENT OF CANCER” (ALMAC DISCOVERY LIMITED, priority 2020, published 2023).

In data set [1] the test system is activated primary fibroblasts WI38, IMR90 and HDF. Kind of data set: sVEGF ELISA in activated primary fibroblasts. The settings on record: cancer cells, immortalized fibroblasts and FGF-2 activated primary fibroblasts, normoxia or hypoxia, 48 hours. The format is cell-based, human. An excerpt:
FIG. 5: USP7 inhibition decreased secreted VEGF levels in activated fibroblasts. The USP7-mediated decrease in VEGF secretion observed in the co-cultures can be solely attributed to modulation of secreted VEGF in primary fibroblasts.
(FIG. 4). […] During the wound healing process or following stimulation by acute or chronic inflammatory signals, fibroblasts acquire an activated phenotype (referred to as myofibroblasts). Once activated, myofibroblasts proliferate and migrate, show contractile activity, exert physical forces to modify tissue architecture and become transcriptionally active leading to the secretion of cytokines, chemokines and extra-cellular matrix (ECM) components. In the tumour microenvironment, the majority of residual fibroblasts become activated and are known as cancer associated fibroblasts (CAF). In order to generate a myofibroblast phenotype, WI38, IMR90 and HDF were co-cultured with anti-CD3/anti-CD28 stimulated PBMCs or were stimulated by FGF-2 or TGFβ. […] The USP7 inhibitor-mediated decrease in VEGF secretion was only observed in primary fibroblasts; immortalized lung fibroblasts (WI38-VA13) were insensitive to USP7 inhibitor treatment, probably due to the destabilized p53 in the SV-40 immortalized fibroblasts (FIG. 7).
(§1) For the co-culture experiments, 5×10^4 cancer cells were seeded in transwell in 0.5 mL complete growth medium and placed on the top of 0.1×10^6 fibroblasts plated in 12-well in 1 mL low serum growth media overnight. Following day cancer cells were washed with PBS and media replaced with reduced (1%) serum growth media. 0.5×10^6 PBMC were plated on top of fibroblasts, incubated for 45 min and activated with CD3 (1 μg/ml final concentration) and CD28 (5 μg/ml final concentration). […] Monoculture experiments, 0.1×10^6 cells were seeded in 12-well in 1 mL of complete growth media (cancer cells) or low serum growth media (fibroblasts) and incubated overnight. […] Afterwards, cell culture media was collected, cell debris were removed by centrifugation the concentration of VEGF in the cell culture supernatants was measured using the human/mouse VEGF immunoassay Quantikine ELISA kit (R&D systems, Minneapolis, Minn., USA) according to the manufacturer's instructions. For the intracellular VEGF detection, total protein concentration was determined by BCA (Pierce Chemical, USA) and VEGF levels determined using the same kit described above.
On the technique in general: In an ELISA, binding on a coated surface is turned into a signal by an enzyme label.

Data set [2] has as its system primary human fibroblasts (HDF) in hypoxic chamber. The data set is described as follows: sVEGF ELISA in primary fibroblasts under hypoxia. The format is cell-based. As to conditions: 48 h.
From the text: FIG. 9: USP7 inhibition decreases VEGF levels in fibroblasts under hypoxia.
In response to wounding and during tumour growth, activated fibroblasts secrete synthesizers and modifiers of the ECM but also soluble angiogenic growth factors such as VEGF. Although VEGF gene expression can be controlled by multiple transcription factors, its major regulator is hypoxia-inducible factor 1 (HIF-1). HIF-1 mediates activation of VEGF transcription in response to hypoxia in solid tumours and in various malignant cell lines.
To assess its potency in a functional assay, HDF were treated with vehicle or various concentrations of USP7 inhibitor ADC-159 and incubated for 48 hours in hypoxic chamber. Cell culture supernatants were collected, and secreted VEGF was measured by ELISA.
as §1

For the next data set, the system named is HIF-1α. Kind of data set: Ubiquitination assay, TUBE pull-down of polyubiquitinated HIF-1α. The format is cell-based, human. The settings on record: HDF, hypoxia; AD-04 1 μM, MG132 10 μM, 1 hour. How it is done:
Given HIF-1α stability is known to be regulated at the protein level by ubiquitination, we investigated whether USP7 inhibition modulates HIF-1α polyubiquitination. […] Cells were harvested, lysed and polyubiquitinated proteins pulled down using two types of Tetra Ubiquitin Binding Entities (TUBES); with equal affinity for K48/K63 or 10 times more affinity for […]. Samples were analysed by immuno-blot using a HIF-1α antibody. […] These findings indicate that USP7 inhibition results in K48 polyubiquitination of HIF-1α and consequently, its proteasomal-mediated degradation.
Cells were lysed in a buffer containing 50 mM Tris-HCl, pH 7.5, 150 mM NaCl, 1 mM EDTA, 1% NP-40, 10% Glycerol, 50 mM NaF, 5 mM sodium pyrophosphate, 10 mM glycerol phosphate, 1 mM sodium orthovanadate, protease and phosphatase inhibitor tablet and 50 uM PR-619. Lysates were pre-cleared by centrifugation at 4° C. for 15 mins at 16,000× g and protein concentration determined using BCA method. 20 ul of samples was taken as input. Pre-cleared supernatant containing 0.5 mg of total protein was added to 20 ul equilibrated Agarose-TUBE 1 or TUBE 2 beads (Life Sensors) and incubated for 2 hours at 4° C. on a rocker platform. Beads were collected by low speed centrifugation (1000-5000× g, 4° C.) for 5 minutes and supernatant taken as FT. Beads were washed twice with 1 ml TBS-T (20 mM Tris-HCl, pH 8.0, 0.15M NaCl, 0.1% Tween-20) and collected by low speed centrifugation. Finally, beads were resuspended in 30 ul of SDS reducing sample buffer and boiled for 10 min at 95° C.

The subject of data set [3] is CT-26 cells in BALB/C mice. The data set is described as follows: CT-26 syngeneic tumour model (AD-04 study). As for the experimental part: FIG. 30: Effect of USP7 on the tumour microenvironment in vivo.
For subcutaneous tumour implantation, CT26 cells were injected subcutaneously (1×10^6cells in 200 μL of RPMI) in the right flank of 8- to 10-week-old BALB/c female mice. […] Tumour volume (in mm^3) was measured twice a week with a digital caliper and calculated by the following formula: volume=(width)^2×length/2. Body weight was measured twice a week. […]

The subject of a further data set is MMP-2. The data set is described as follows: MMP-2 in supernatants of HDF and HUVEC co-culture (Luminex). As to conditions: supernatants after 14 days. The format is cell-based, human. How it is done:
Cell culture supernatants from tube formation were collected and MMP-2 levels were measured using Luminex®.
Next, the underlying mechanism of tube formation inhibition was investigated. […] To determine whether secretion of MMP-2 is modulated by USP7 inhibition, supernatants from HUVEC and HDF co-cultures were collected after 14 days.
(§2) Concentrations of MMP2 and MMP7 were determined in cell culture supernatants in triplicates using Luminex human cytokine/chemokine multiplex kits (Millipore, St. Charles, Mo., USA) according to the manufacturer's protocol.

In another data set the test system is MMP-7. The data set is described as follows: MMP-7 in supernatants of HDF invasion assay (Luminex). The format is cell-based, human. As to conditions: invading HDF, 96 hours. As for the experimental part:
The scratch wound cell invasion assay was used to measure the ability of primary human fibroblasts to invade through Matrigel® basement membrane. Cell culture supernatants from invasion assay were collected after 96 hours and MMP-7 levels were measured using Luminex®.
To further explore whether USP7 inhibition modulates MMP levels in invading fibroblasts, cell culture supernatants from HDF invasion assay were collected and presence of various MMP was detected using Luminex® Multiplex assay.
as §2

Residues, ends and D or L forms follow the SMILES beside them. *: point of attachment. Cbz = O=C(OCc1ccccc1)*

`CC(C)(C)C[C@@H]1N[C@@H](C(=O)N[C@H]2CC[C@H](O)CC2)[C@H](c2cccc(Cl)c2F)[C@]12C(=O)Nc1cc(Cl)ccc12` [SAR405838]: the “secretion of VEGF (benchmark against MDM2 antagonists)” value (shortened to “secretion of VEGF”) in data set [1] is given as “not able to modulate”. For the compound `CC1(C(=O)N2CCC(O)(Cn3cnc4c(cc(Cl)n4-c4ccc5c(c4)OCC5)c3=O)CC2)CC1` [ADC-198, 6-Chloro-7-(2,3-dihydrobenzofuran-6-yl)-3-[[4-hydroxy-1-(1-methylcyclopropanecarbonyl)-4-piperidyl]methyl]pyrrolo[2,3-d]pyrimidin-4-One], in data set [2], the “VEGF secretion under hypoxia” value is recorded as “Comparable results”. For the compound `CCOc1cc(C(C)(C)C)ccc1C1=N[C@@](C)(c2ccc(Cl)cc2)[C@@](C)(c2ccc(Cl)cc2)N1C(=O)N1CCN(CCCS(C)(=O)=O)CC1` [RG7112], the “secretion of VEGF” value in data set [1] is on record as “not able to modulate”. Regarding `CC(C)C[C@@H](C=O)NC(=O)[C@H](CC(C)C)NC(=O)[C@H](CC(C)C)NC(=O)OCc1ccccc1` [MG132, reference compound] (Cbz-Leu-Leu-Leu-aldehyde), the “K63/K48 polyubiquitinated HIF-1α” value in the data set with HIF-1α is recorded as “increased polyubiquitination”.

For `O=C(c1cnc(C2CC2)o1)N1CCC(O)(Cn2cnc3c(cc(Cl)n3-c3ccc4c(c3)CCO4)c2=O)CC1` [ADC-160, 6-Chloro-3-((1-(2-cyclopropyloxazole-5-carbonyl)-4-hydroxypiperidin-4-yl)methyl)-7-(2,3-dihydrobenzofuran-5-yl)-3,7-dihydro-4H-pyrrolo[2,3-d]pyrimidin-4-One], the “VEGF secretion under hypoxia” value in data set [2] is reported as “Comparable results”. In data set [3] (highest AD-04 dose (subcutaneous infusion), Sorafenib oral positive control, day 15 post tumour implantation), `CNC(=O)c1cc(Oc2ccc(NC(=O)Nc3ccc(Cl)c(C(F)(F)F)c3)cc2)ccn1` [Sorafenib, reference compound] displayed a tumour growth inhibition of 58%. Moreover, the “tolerability, bodyweight of tumour-bearing mice” value in data set [3] (mouse, in vivo) is recorded as “no significant bodyweight loss”. Regarding `COc1ccc(C2=N[C@@H](c3ccc(Cl)cc3)[C@@H](c3ccc(Cl)cc3)N2C(=O)N2CCNC(=O)C2)c(OC(C)C)c1` [Nutlin-3a], the “secretion of VEGF” value in data set [1] is “not able to modulate”.

For “Avastin: anti-VEGF monoclonal antibody bevacizumab [reference compound]”, the MMP-2 levels result in the data set with MMP-2 is “did not have significant impact”. In addition, the MMP-7 levels entry with MMP-7 was “did not have significant effect”. In the case of `O=C(c1cnc(C2CC2)o1)N1CCC(O)(Cn2cnc3c(cc(Cl)n3-c3ccc4c(c3)OCC4)c2=O)CC1` [ADC-199, 6-Chloro-3-((1-(2-cyclopropyloxazole-5-carbonyl)-4-hydroxypiperidin-4-yl)methyl)-7-(2,3-dihydrobenzofuran-6-yl)-3,7-dihydro-4H-pyrrolo[2,3-d]pyrimidin-4-One], the “VEGF secretion under hypoxia” value in data set [2] is listed as “Comparable results”. Same read-out and setting: the result for `CC1(C(=O)N2CCC(O)(Cn3cnc4c(cc(Cl)n4-c4ccc5c(c4)OCO5)c3=O)CC2)CC1` [ADC-556, 7-(Benzo[d][1,3]dioxol-5-yl)-6-chloro-3-((4-hydroxy-1-(1-methylcyclopropane-1-carbonyl)piperidin-4-yl)methyl)-3,7-dihydro-4H-pyrrolo[2,3-d]pyrimidin-4-One] reads “Comparable results”.
